Reference: patent US11679097B2, “Combination product containing limonoid compound and biguanide compound” (ZHEJIANG YANGSHENGTANG INSTITUTE OF NATURAL MEDICATION CO., …, priority 2017, dated 2023)

Columns and labels:
Format in all cases: in vivo
STZ mice [1] = assay: Blood glucose in mouse pancreatic islet β-cell injury model (Example 3); conditions: STZ ICR mice; single administration 0.1 g/kg per day by gavage, two weeks; 1 h after last administration
From the text: Effects of a Limonoid Compound, Metformin or a Combination Thereof on Blood Glucose in a Mouse Pancreatic Islet β-Cell Injury Model In this example, a mouse pancreatic islet β-cell injury model was established by modeling ICR mice with streptozotocin (STZ) (referred to the prior art literature: Li Nan et al., Protective effect of pine pollen on kidney damage in diabetic nephropathy mice, Science and Technology Review, 2014, 32 (4/5): 95-99), and used to complete the evaluation of hypoglycemic effect in animals (this model could simulate pancreatic islet β-cell damage state of type I and type II diabetics). […] Conditions of experimental feeding: ICR mice (20±2 g), aged 6 weeks, purchased from Zhejiang Academy of Medical Sciences, and subjected to experimental feeding after 7 days of preliminary feeding. […] The experimental feed was mouse growth-stable feed (GB […]), and the daily feeding and management of the animals were under the responsibility of the animal security department, which provided the animals with sufficient padding and fresh drinking water daily. Experimental grouping: 15 male mice were randomly selected as the normal control group. […] Gavage doses: the gavage dose was 0.1 g/kg per day for the […] group, the gavage dose was 0.1 g/kg per day for the […] group, the gavage dose was 0.1 g/kg per day for the […]-glucopyranoside group, the gavage dose of metformin was 0.1 g/kg per day for the metformin group, […] dose of 0.05 g/kg and metformin at a dose of 0.05 g/kg were simultaneously gavaged per day for the […]/metformin combination group, […] dose of 0.05 g/kg and metformin at a dose of 0.05 g/kg were simultaneously gavaged per day for the […]/metformin combination group, […]-glucopyranoside at a dose of 0.05 g/kg and metformin at a dose of 0.05 g/kg were simultaneously gavaged per day for the […]-glucopyranoside/metformin combination group, the gavage volume was 10 mL/kg, and the normal group and the model group were administrated with 10 mL/kg of distilled water. […] SPSS 16.0 software was used for statistical analysis. The data were expressed as mean and standard deviation. The data before and after were analyzed by t-test, and P<0.05 was considered statistically significant.

STZ mice [2] = assay: Blood glucose in mouse model of type II diabetes with pancreatic islet damage and obesity (Example 5); conditions: high-fat diet + STZ ICR mice; single administration 0.5 g/kg per day by gavage, three weeks
Protocol: (§1) It should be noted that the conditions for raising the mice were as follows: the temperature was 23±1° C., the humidity was 55±10%, the lights were turned on between 7 am and 7 pm (the lights were turned off at other time), and the mice were allowed to access to water and feed freely. The experimental feed was mouse growth-stable feed (GB M2118), and the daily feeding and management of the animals were under the responsibility of the animal security department, which provided the animals with sufficient padding and fresh drinking water daily.
SPSS 16.0 software was used for statistical analysis.

db/db mice = assay: Blood glucose and insulin in mouse model of type II diabetes (Example 4); conditions: single administration 0.2 g/kg per day by gavage, two weeks
From the text: Effects of a Limonoid Compound, Metformin or a Combination Thereof on Blood Glucose and Insulin in a Mouse Model of Type II Diabetes
In the present embodiment, the limonoid compound selected nomilin, deacetylnomilin, nomilin acid, deactylnomilin 17-β-D-glucopyranoside, and a nomilin single administration group, deacetylnomilin single administration group, nomilin acid single administered group, deactylnomilin 17-β-D-glucopyranoside single administration group, and combination thereof with metformin administration groups were set, respectively.
as §1, with “Conditions for experimental feeding: as type II diabetes model mice, 6-week-old SPF-grade db/db mice were purchased from the Nanjing Model Biology Institute, and subjected to experimental feeding after 7 days of preliminary feeding. It” for “It”
Experimental grouping: male db/db mice (20±2 g) were selected, 18 male mice in each group were tested, and drinking bottles were sterilized weekly. The experimental groups included the normal control group (db/m, n=18), the model group (db/db, n=18), the nomilin group (db/db, n=18), the deacetylnomilin group (db/db, n=18), the nomilin acid group (db/db, n=18), the deactylnomilin 17-β-D-glucopyranoside group (db/db, n=18), the metformin group (db/db, n=18), the nomilin/metformin combination group (db/db, n=18), the deacetylnomilin/metformin combination group (db/db, n=18), the nomilin acid/metformin combination group (db/db, n=18), the deactylnomilin 17-β-D-glucopyranoside/combination group (db/db, n=18).
Gavage doses: nomilin at a dose of 0.2 g/kg was gavaged per day for the nomilin group, deacetylnomilin at a dose of 0.2 g/kg was gavaged per day for the deacetylnomilin group, nomilin acid at a dose of 0.2 g/kg was gavaged per day for the nomilin acid group, deacetylnomilin […] at a dose of 0.2 g/kg was gavaged per day for the deactylnomilin glucopyranoside group, metformin at a dose of 0.2 g/kg was gavaged per day for the metformin group, nomilin at a dose of 0.1 g/kg and metformin at a dose of 0.1 g/kg were simultaneously gavaged per day for the nomilin/metformin combination group, nomilin acid at a dose of 0.1 g/kg and metformin at a dose of 0.1 g/kg were simultaneously gavaged per day for the nomilin acid/metformin combination group, deacetylnomilin at a dose of 0.1 g/kg and metformin at a dose of 0.1 g/kg were simultaneously gavaged per day for the deacetylnomilin/metformin combination group, deactylnomilin 17-β-D-glucopyranoside at a dose of 0.1 g/kg and metformin at a dose of 0.1 g/kg were simultaneously gavaged per day for the deactylnomilin 17-β-D-glucopyranoside/metformin combination group, the gavage volume was 10 mL/kg, and the normal group and the model group were administrated with 10 mL/kg of distilled water. Two weeks later, the blood glucose values were measured by tail trimming method (Johnson's blood glucose meter) 1 h after the last administration, and serum insulin levels were measured with blood collected from orbital cavity by enzyme-linked immunosorbent assay (Elisa), and the average of each group was obtained. SPSS 16.0 software was used for statistical analysis. The data were expressed as mean and standard deviation. The data before and after were analyzed by t-test, and P<0.05 was considered statistically significant.

ichangin 17-β-D-glucopyranoside
Blood glucose value (STZ mice [1]): 14.9 ± 2.1 mmol/L

deactylnomilin 17-β-D-glucopyranoside
Blood glucose value (STZ mice [2]): 12.7 ± 2.5 mmol/L
Insulin (db/db mice; serum, Elisa): 8.40 ± 3.27 pg/mL
Blood glucose value (db/db mice; 1 h after last administration): 12.8 ± 5.5 mmol/L

nomilinic acid 17-β-D-glucopyranoside
Blood glucose value (STZ mice [2]): 13.5 ± 2.4 mmol/L

CC1(C)O[C@](C)(O)[C@]2(C)[C@H]3CC[C@@]4(C)[C@H](c5ccoc5)OC(=O)[C@H]5O[C@]54[C@]3(C)C(=O)C[C@@H]12 [Ichangensin, ichangensin]
Blood glucose value (STZ mice [1]): 14.5 ± 3.5 mmol/L

nomilin 17-β-D-glucopyranoside
Blood glucose value (STZ mice [2]): 12.8 ± 2.9 mmol/L

CC(C)(O)[C@@H]1CC(=O)[C@]2(C)[C@H](CC[C@@]3(C)[C@H](c4ccoc4)OC(=O)[C@H]4O[C@]432)[C@]12COC(=O)C[C@@H]2O [Ichangin, ichangin]
Blood glucose value (STZ mice [1]): 14.8 ± 1.9 mmol/L
